Source: patent US20220268691A1, “MICROSCOPE ADAPTOR AND SAMPLE MOUNT FOR MAGNETICALLY ACTUATING SAMPLE” (University of Southern California, priority 2021, published 2022)

Legend:
[1] = tested on: Pancreatic spheroids; assay: Magnetogel toxicity study (viability of pancreatic spheroids in M-gel); assay type: cell-based; conditions: M-gel/cells treated with 10 μL of gemcitabine; 96-well culture plate; sextuplet
Description: Pancreatic spheroids were grown on a 96-well culture plate. All measurements were performed in sextuplet (6×). The viability from these wells was compared against two controls: Matrigel/cells only, and M-gel/cells treated with 10 μL of gemcitabine (GEM), a common chemotherapeutic agent (as shown in FIG. 2B).

[2] = tested on: PDAC; conditions: GEM-based treatments; pancreatic cancer patients; cited from earlier work

In the case of `Nc1ccn([C@@H]2O[C@H](CO)[C@@H](O)C2(F)F)c(=O)n1` [GEM, gemcitabine], the “viability of cells (GEM control)” value [1] is listed as “cells killed” and the “response to treatment observed in patients” value [2] is listed as 37 % of patients.
